Data published in the CheMixHub ionic liquid set.
± gives the uncertainty stated by the source.

Assay: xn = mol fraction of the nth substance listed
Conditions: for electrical conductivity: 101 kPa, x2 = 0

CC[n+]1ccn(C)c1.N#C[N-]C#N + CCC(C)O
viscosity [mPa·s], 100 kPa
Conditions	x1 = 0.1023	x1 = 0.2005	x1 = 0.3015	x1 = 0.4018	x1 = 0.5032	x1 = 0.6026	x1 = 0.7026	x1 = 0.8032	x1 = 0.9029	x1 = 1
298.15 K	3.05 ± 0.61	3.17 ± 0.63	3.48 ± 0.7	3.86 ± 0.77	4.53 ± 0.91	5.4 ± 1.1	6.7 ± 1.3	8.3 ± 1.6	10.3 ± 2.1	13.1 ± 2.6
303.15 K	2.59 ± 0.52	2.71 ± 0.54	3.02 ± 0.6	3.41 ± 0.68	4.07 ± 0.82	4.95 ± 0.99	6.1 ± 1.2	7.5 ± 1.5	9.6 ± 1.9	11.8 ± 2.4
308.15 K	2.25 ± 0.45	2.37 ± 0.47	2.68 ± 0.54	3.06 ± 0.61	3.72 ± 0.75	4.63 ± 0.93	5.6 ± 1.1	7 ± 1.4	8.9 ± 1.8	10.9 ± 2.2
313.15 K	2.01 ± 0.4	2.13 ± 0.43	2.41 ± 0.48	2.69 ± 0.54	3.36 ± 0.67	4.19 ± 0.84	5.1 ± 1	6.4 ± 1.3	7.8 ± 1.6	9 ± 1.8
318.15 K	1.83 ± 0.37	1.95 ± 0.39	2.26 ± 0.45	2.54 ± 0.51	3.06 ± 0.61	3.79 ± 0.76	4.59 ± 0.92	5.8 ± 1.2	6.9 ± 1.4	8.1 ± 1.6
323.15 K	1.67 ± 0.33	1.79 ± 0.36	2.05 ± 0.41	2.26 ± 0.45	2.83 ± 0.57	3.51 ± 0.7	4.18 ± 0.84	5 ± 1	6.2 ± 1.2	7.3 ± 1.5

CCCCCCCCO + CCCCCCCC(=O)[O-].c1c[nH+]c[nH]1
Conditions	viscosity [mPa·s]
293.15 K, 101.3 kPa, x1 = 1	9.18 ± 0.23

O=C(CO)[C@@H](O)[C@H](O)[C@@H](O)CO + CCCCCCCCCCCCCCCC[N+](C)(C)C.[Br-] + O
viscosity [mPa·s], 100 kPa
Conditions	298.15 K	308.15 K	318.15 K
x2 = 7.19e-06, x1 = 0.002005	0.946 ± 0.061	0.782 ± 0.06	0.65 ± 0.06
x2 = 7.19e-06, x1 = 0.002298	0.954 ± 0.061	0.788 ± 0.06	0.655 ± 0.06
x2 = 7.19e-06, x1 = 0.002748	0.965 ± 0.061	0.797 ± 0.061	0.662 ± 0.06
x2 = 7.2e-06, x1 = 0.0007582	0.915 ± 0.06	0.757 ± 0.06	0.629 ± 0.06
x2 = 7.2e-06, x1 = 0.001199	0.926 ± 0.061	0.766 ± 0.06	0.637 ± 0.06
x2 = 7.2e-06, x1 = 0.001449	0.932 ± 0.061	0.771 ± 0.06	–
x2 = 1.438e-05, x1 = 0.00232	0.96 ± 0.061	0.793 ± 0.06	0.658 ± 0.06
x2 = 1.438e-05, x1 = 0.002732	0.971 ± 0.061	0.802 ± 0.061	0.665 ± 0.06
x2 = 1.439e-05, x1 = 0.00146	0.937 ± 0.061	–	–
x2 = 1.439e-05, x1 = 0.001979	0.951 ± 0.061	0.786 ± 0.06	0.652 ± 0.06
x2 = 1.44e-05, x1 = 0.0008896	0.922 ± 0.06	0.763 ± 0.06	0.633 ± 0.06
x2 = 1.44e-05, x1 = 0.001296	0.933 ± 0.061	0.771 ± 0.06	0.64 ± 0.06
x2 = 2.156e-05, x1 = 0.002717	0.975 ± 0.061	0.805 ± 0.061	0.667 ± 0.06
x2 = 2.157e-05, x1 = 0.002351	0.965 ± 0.061	0.797 ± 0.06	0.66 ± 0.06
x2 = 2.158e-05, x1 = 0.001965	0.954 ± 0.061	0.789 ± 0.06	0.653 ± 0.06
x2 = 2.159e-05, x1 = 0.001383	0.938 ± 0.061	0.776 ± 0.06	0.642 ± 0.06
x2 = 2.159e-05, x1 = 0.001661	0.946 ± 0.061	0.782 ± 0.06	0.647 ± 0.06
x2 = 2.16e-05, x1 = 0.001025	0.928 ± 0.061	0.768 ± 0.06	0.636 ± 0.06

O + CCCCCCCCCCCCCCCC[n+]1ccccc1.O=C([O-])C(O)c1ccccc1
Conditions	electrical conductivity [S/m]
293.15 K	0.00012
298.15 K	0.00015
303.15 K	0.00016
308.15 K	0.00017
313.15 K	0.00019

O + CCCCCCCCCCCCCCCC[n+]1ccccc1.O=C([O-])C(O)c1ccccc1 + CC(C)C[C@H](N)C(=O)O
x3 = 0
Conditions	electrical conductivity [S/m]
293.15 K	0.00012
298.15 K	0.00015
303.15 K	0.00016
308.15 K	0.00017
313.15 K	0.00019

O + CCCCCCCCCCCCCCCC[n+]1ccccc1.O=C([O-])C(O)c1ccccc1 + CC(C)[C@H](N)C(=O)O
x3 = 0
Conditions	electrical conductivity [S/m]
293.15 K	0.00012
298.15 K	0.00015
303.15 K	0.00016
308.15 K	0.00017
313.15 K	0.00019

O + CCCCCCCCCCCCCCCC[n+]1ccccc1.O=C([O-])C(O)c1ccccc1 + C[C@H](N)C(=O)O
x3 = 0
Conditions	electrical conductivity [S/m]
293.15 K	0.00012
298.15 K	0.00015
303.15 K	0.00016
308.15 K	0.00017
313.15 K	0.00019

O + CCCCCCCCCCCCCCCC[n+]1ccccc1.O=C([O-])C(O)c1ccccc1 + NCC(=O)NCC(=O)O
x3 = 0
Conditions	electrical conductivity [S/m]
293.15 K	0.00012
298.15 K	0.00015
303.15 K	0.00016
308.15 K	0.00017
313.15 K	0.00019

O + CCCCCCCCCCCCCCCC[n+]1ccccc1.O=C([O-])C(O)c1ccccc1 + NCC(=O)O
x3 = 0
Conditions	electrical conductivity [S/m]
293.15 K	0.00012
298.15 K	0.00015
303.15 K	0.00016
308.15 K	0.00017
313.15 K	0.00019

O + CCCCCCCCCCCCCCCC[n+]1ccccc1.O=C([O-])c1ccccc1O
Conditions	electrical conductivity [S/m]
293.15 K	0.000135 ± 8.1e-06
298.15 K	0.000158 ± 9.5e-06
303.15 K	0.000178 ± 1.1e-05
308.15 K	0.000197 ± 1.2e-05
313.15 K	0.000246 ± 1.5e-05

O + CCCCCCCCCCCCCCCC[n+]1ccccc1.[Cl-]
Conditions	electrical conductivity [S/m]
308.15 K	6.7e-05 ± 1e-06

C[C@H](N)C(=O)O + CCCCCCCCCCCCCCCC[n+]1ccccc1.[Cl-] + O
308.15 K
Conditions	electrical conductivity [S/m]
x1 = 2.018e-05	0.00076 ± 8e-06
x1 = 2.252e-05	5.6e-05 ± 1e-06
x1 = 0.0009272	7.5e-05 ± 1e-06
x1 = 0.001838	0.000251 ± 3e-06
